Test results as given in paper PMC9268013, “Design, Synthesis, and Biological Evaluation of N14-Amino Acid-Substituted Tetrandrine Derivatives as Potential Antitumor Agents against Human Colorectal Cancer” (Molecules, 2022).

Experiments:
[1] = system: microtubule-associated protein 1 light chain 3 (LC3); assay: Western blot, LC3-II/LC3-I in HCT-15 cells; format: cell-based, human; conditions: HCT-15, 0.625, 1.25, 2.5, and 5 μM, p < 0.05
Procedure: (§1) The protein levels in HCT-15 cells were evaluated via Western blot analysis. The cells were cultured in dishes (10^7 cells per dish) and incubated overnight at 37 °C, 0.625, 1.25, 2.5, and 5 μM of 16 was added in triplicate after 24 h of incubation. Then, the cells were harvested and lysed in Laemmli buffer (glycerol, 1M TRIS pH 6.8, 1% SDS, MQ H2O and 20% β-mercaptoethanol). The samples were boiled for 5 min at 95 °C, and the protein content was determined using a BCA kit. Equal amounts of 30 μg of sample were placed on a Tris/HCl gel and separated by SDS-PAGE electrophoresis. Then, the samples were transferred to a PVDF membrane (Milibo, Co., Ltd., Billyka, MA, USA) and blocked with 5% skimmed milk powder for 2 h. Diluted primary antibodies Bcl-2 (1:3000), Bax (1:10,000), caspase-3 (l:2000), p62 (1:1000), Beclin1 (1:1000), LC3 (1:2000), and β-actin (1:1000) were incubated overnight at 4 °C, followed by a horseradish peroxidase-conjugated goat anti-rabbit IgG secondary antibody (ProteinTech, China) for 2 h at room temperature. Then, immunoreactivity was developed with diaminobenzidine solution, and scanned and recorded by a gel imaging system (G:BOX Chemi XL1.4, Frederick, MD, USA).

[2] = system: human lung cancer cells (A549); assay: MTT antiproliferative assay, A549; format: cell-based
Procedure: (§2) Human lung cancer cell (A549,), human umbilical vein endothelial cells (HUVECs,), human colon cancer cell lines (HCT-15), human breast cancer cells (MCF-7), human liver cancer cells (HepG2), human pancreatic cancer cells (BxPC-3), and human hepatic cell line (L-02) were obtained from the Sichuan University. A549, HUVECs, and L-02 were cultured in DMEM medium (high glucose, HyClone, GE Healthcare, Sydney, Australia). Human colon cancer cell lines HCT-15, human pancreatic cancer cells […] BxPC-3 were cultured in RPMI-1640. Human breast cancer cells MCF-7 and human liver cancer cells HepG2 were cultured in MEM medium. All the mediums, including 10% fetal bovine serum (FBS, HyClone, GE Healthcare, Sydney, Australia) and 1% ampicillin/streptomycin, were used to culture the above cells at 37 °C in a humidified atmosphere (5% CO2 and 95% air).
(§3) The antiproliferative activity of the title compounds was determined using the MTT (3-(4,5-dimethylthiazol-2-yl)-2,5-diphenyltetrazolium bromide, Sigma-Aldrich, Saint Louis, MO, USA) assay on different cells. Cells lines were seeded into 96-well plates at a density of 2000 to 6000 cells/well. DMSO was used to dissolve the test compounds, and TET was used as a positive control. After 24 h, the test compounds were added at different concentrations (0.625, 1.25, 2.5, 5, 10, and 20 μM) and incubated at 37 °C for 72 h. MTT was added to each well at a final concentration of 0.5 mg/mL and incubated at 37 °C for 4 h. Then, 150 μL of DMSO was added to each well to dissolve the formazan crystals. The absorbance was measured at 570 nm by a microplate reader (ELX800UV, Bio-Tek, Windoski, VT, USA). All measurements were repeated at least three times under the same conditions. Graphpad Prism 8.0 was used to calculate the IC50 values.

Beclin-1 = assay: Western blot, Beclin-1 in HCT-15 cells; format: cell-based, human; conditions: HCT-15, increasing concentration, p < 0.01
Procedure: as §1

Bax/Bcl-2 = assay: Western blot, Bax/Bcl-2 in HCT-15 cells; format: cell-based, human; conditions: HCT-15, only at 5 μM, p < 0.05
Procedure: as §1

[3] = system: human liver cancer cells (HepG2); assay: MTT antiproliferative assay, HepG2; format: cell-based
Procedure: as §2, §3

[4] = system: human umbilical vein endothelial cells (HUVEC); assay: MTT antiproliferative assay, HUVEC; format: cell-based; conditions: 72 h
Procedure: as §2, §3

HCT-15 cells = assay: Wound healing (migration) assay, HCT-15; format: cell-based, human; conditions: 24 h, control approximately 46%
Procedure: HCT-15 cells or HUVECs were seeded in six-well culture plates and allowed to grow to 80–90% confluence. Subsequently, a cell-free line was manually created by scratching the confluent cell monolayers with a 200 μL sterile pipette tip, and the detached cells were washed with PBS. The cells were then incubated with 10% FBS and different concentrations of 16 (0.625, 1.25, 2.5, 5, and 10 μM). Then, 24 h later, images of the same location were obtained using a microscope (Nikon ECLIPSE TE2000-U, Tokyo, Japan). Each experiment was carried out at least three times.

IC50 ([2]; 72 h): 1.19 ± 0.01 µM
IC50 ([2]; Homo sapiens, A549, 72 h): < 1.5 µM
IC50 ([3]; 72 h): 1.05 ± 0.03 µM
IC50 ([3]; Homo sapiens, HepG2, 72 h): < 1.5 µM
Compound: COc1cc(NC(=O)[C@@H]2CCCN2)c2cc1Oc1ccc(cc1)C[C@H]1c3cc(c(OC)cc3CCN1C)Oc1c(OC)c(OC)cc3c1[C@H](C2)N(C)CC3 [Compound 16, 14-N-(L-proline)-tetrandrine]
Ratio of LC3-II to LC3-I [1]: increased
Beclin-1 level (Beclin-1): markedly enhanced
Ratio of Bax/Bcl-2 (Bax/Bcl-2): enhanced
IC50 [4]: 1.48 ± 0.01 µM
Scratched area covered (migration rate) (HCT-15 cells; HCT-15, 5 μM): 14.1%
Scratched area covered (migration rate) (HCT-15 cells; HCT-15, 10 μM): 10.5%
